Where two headings read alike, the source gives them in different places.

The target of test [1] is T1, α7/5-HT3 Chimeric Ligand Gated Ion Channel (Homo sapiens, UniProt P36544, M226I/T225I).
T1 construct: expressed in transfected cells
The test is classed as binding, human α7 / mouse 5-HT3. The note with it: for IC50: read-out: Fitc-α-Bungoarotoxin Binding (30 nM) IC50.

A further test concerns the target T2, α7/5-HT3 channel (Homo sapiens, UniProt P36544, M226I/T225I).
T2 construct: expressed in transfected cells
The test can be described thus: Calcium flux assay on FLIPR, agonist activity, α7/5-HT3-SHEP cells. The conditions noted are these: for EC50: calcium flux. Format: cell-based, human α7 / mouse 5-HT3. The protocol:
The α7/5-HT3-SHEP or alternatively the human α7 nACHR double mutant SHEP (described below) cells were grown in minimal essential medium (MEM) containing nonessential amino acids supplemented with 10% fetal bovine serum, L-glutamine, 100 units/ml penicillin/streptomycin, 250 ng/ml fungizone, 400 μg/ml Hygromycin-B, and 800 μg/ml Geneticin. The cells were grown in a 37° C. incubator with 6% CO2. The α7/5-HT3-SHEP cells were trypsinized and plated in 96 well plates with dark side walls and clear bottoms (Corning # 3614) at density of […] cells per well two days before analysis. The cells were loaded in a 1:1 mixture of 2 mM Calcium Green-1, AM (Molecular Probes) prepared in anhydrous dimethylsulfoxide and 20% pluonic F-127 (Molecular Probes). This reagent was added directly to the growth medium of each well to achieve a final concentration of 2 μM of Calcium Green-1, AM. The cells were incubated in the dye for one hour at 37° C. and then washed with 4 cycles of Bio-Tek plate washer. Each cycle was programmed to wash each well with four times with either EBSS or MMEBSS. After the third cycle, the cells were allowed to incubate at 37° C. for at least ten minutes. After the fourth cycle final volume in each well was 100 μl. The cells were analyzed on FLIPR (Molecular Devices) for the change in fluorescence after the addition of a 100 μl of a 2× drug stock. FLIPR was set up to excite the dye with at 488 nanometers using 500 mW of power. A 0.5 second exposure was used to illuminate each well. Fluorescence emission was recorded above 525 nm. Fluorescence was detected using a F-stop set of either 2.0 or 1.2.
We compared the physiological Earles Balanced Salt Solution (EBBS) buffer and the special cell culture media (MMEBSS) in the Ca^++functional assay on FLIPR.
The special cell culture media, designated MMEBSS is comprised of 4 mM CaCl2, 0.8 mM MgSO4, 20 mM NaCl, 5.3 mM KCL, 5.6 mM D-Glucose, 120 mM N-Methyl-D-Glucosamine, 9 mM Tris base and 20 mM HEPES. A detailed description of the preparation of MMEBSS is provided below.
(Calcium assays in cells follow changes in intracellular calcium, usually with a dye or a luminescent sensor.)

Test [2] has as its target T3, α7 nAChR (Homo sapiens, UniProt P36544). The conditions noted are these: endogenous α7 nACh receptor; cited from earlier work.
For test [3], the target named is double mutant human α7 ligand gated ion channel (Homo sapiens, UniProt P36544, C241S/T230P). The note with it: 100 M nicotine as printed. The procedure: The cells were grown in a 37° C. incubator with 6% CO2. […] Each cycle was programmed to wash each well with four times with either EBSS or MMEBSS. […] A 0.5 second exposure was used to illuminate each well. Fluorescence was detected using a F-stop set of either 2.0 or 1.2.
Sequence of double mutant human α7 ligand gated ion channel (P36544 23-502 T230P/C241S): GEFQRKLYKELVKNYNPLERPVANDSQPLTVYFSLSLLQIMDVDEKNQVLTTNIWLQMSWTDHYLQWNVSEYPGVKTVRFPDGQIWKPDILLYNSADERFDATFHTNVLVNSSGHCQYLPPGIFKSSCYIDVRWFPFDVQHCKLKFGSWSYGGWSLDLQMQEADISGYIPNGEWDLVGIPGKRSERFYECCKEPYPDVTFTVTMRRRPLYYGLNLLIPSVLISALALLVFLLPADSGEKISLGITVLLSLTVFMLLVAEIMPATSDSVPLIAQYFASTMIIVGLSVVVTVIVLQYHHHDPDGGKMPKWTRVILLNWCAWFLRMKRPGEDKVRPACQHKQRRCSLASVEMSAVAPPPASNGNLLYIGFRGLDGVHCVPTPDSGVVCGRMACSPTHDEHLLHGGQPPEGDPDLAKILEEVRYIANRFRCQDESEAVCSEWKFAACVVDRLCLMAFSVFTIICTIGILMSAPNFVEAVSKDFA

In test [4] the target is T3, α7 nAChR. The note with it: human receptor; cited from earlier work.
The target of another test is chicken α7 nAChR (Gallus gallus, UniProt P22770). The conditions noted are these: chicken receptor; cited from earlier work.
Sequence of chicken α7 nAChR (P22770 23-502 limits assumed): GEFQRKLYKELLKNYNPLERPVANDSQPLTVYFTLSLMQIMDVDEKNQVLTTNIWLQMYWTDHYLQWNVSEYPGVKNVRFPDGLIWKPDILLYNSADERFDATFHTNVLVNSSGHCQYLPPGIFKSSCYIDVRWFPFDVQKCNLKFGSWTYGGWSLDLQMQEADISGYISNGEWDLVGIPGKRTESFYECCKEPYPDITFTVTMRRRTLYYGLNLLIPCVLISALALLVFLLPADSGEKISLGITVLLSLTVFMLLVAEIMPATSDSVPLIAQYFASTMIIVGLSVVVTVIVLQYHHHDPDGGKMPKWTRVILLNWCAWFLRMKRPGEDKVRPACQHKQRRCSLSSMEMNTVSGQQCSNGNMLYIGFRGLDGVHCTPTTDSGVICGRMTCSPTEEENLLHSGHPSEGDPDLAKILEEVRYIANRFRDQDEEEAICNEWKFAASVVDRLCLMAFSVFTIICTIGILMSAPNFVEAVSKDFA

T1 sequence (P36544 with tags, fused parts or gaps T225I/M226I): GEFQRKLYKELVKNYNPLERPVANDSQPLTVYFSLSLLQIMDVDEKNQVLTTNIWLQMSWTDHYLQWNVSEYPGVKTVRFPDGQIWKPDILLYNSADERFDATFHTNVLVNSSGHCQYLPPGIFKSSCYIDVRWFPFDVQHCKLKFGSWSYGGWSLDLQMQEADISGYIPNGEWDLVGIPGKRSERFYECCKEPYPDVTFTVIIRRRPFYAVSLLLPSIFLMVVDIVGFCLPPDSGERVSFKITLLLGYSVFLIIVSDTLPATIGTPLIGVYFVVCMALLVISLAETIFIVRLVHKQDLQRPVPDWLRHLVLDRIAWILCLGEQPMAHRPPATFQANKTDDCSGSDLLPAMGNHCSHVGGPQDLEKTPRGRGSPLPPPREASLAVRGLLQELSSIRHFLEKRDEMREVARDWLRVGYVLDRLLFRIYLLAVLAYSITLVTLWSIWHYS
T2 sequence (P36544 with tags, fused parts or gaps T225I/M226I): as above
T3 sequence (P36544 23-502): as the sequence (P36544 23-502 T230P/C241S) above, with P208T, S219C counted along it

As a reminder, the IC50 is the concentration that inhibits the measured activity by half. Usually Ki stands for the equilibrium dissociation constant of an inhibitor or competing ligand from its target. Broadly, the EC50 is the concentration giving half of the maximal effect. With `Clc1ccc([C@@H]2C[C@H]3CC[C@@H]2N3)cn1` (racemic) [(+/−) Epibatidine], the IC50 in test [1] is 0.09 µM. The Ki in test [1] (read-out: Ki, competition for Fl-btx binding) was 0.09 µM. The values for the EC50 on α7/5-HT3 channel (MMEBSS) and on α7 nAChR [2] were 0.12 µM and 2 µM, respectively.

In the case of `CN1CCCC1c1cccnc1` (single isomer, unassigned; (-)) [(−) Nicotine], in test [1], the “Competition of Fl-btx binding” value was “competes at all concentrations of Fl-btx”. Also, at α7/5-HT3 channel (100 μM, EBSS, FIG. 6), the “Calcium response to agonist in physiological buffer” value is “little calcium was detected”. Further, at α7/5-HT3 channel (100 μM, MMEBSS, FIG. 6), the “Calcium response to agonist in special cell culture media” value is on record as “evoked a large increase in intracellular calcium”. For the same compound, the Calcium influx result in test [3] is recorded as “induced a maximal calcium influx”.

Consider `C[N+]1(C)CCN(c2ccccc2)CC1` [1,1-dimethyl-4-phenylpiperazinium], for which the Agonist character entry is on record as “full agonist” at α7 nAChR [4] and “partial agonist” on chicken α7 nAChR.

In the case of `Cc1cc([C@@H]2CCCN2C)on1` [ABT-418], the IC50 in test [1] was found to be 38 µM. Further, the EC50 was 27 µM on α7/5-HT3 channel (MMEBSS) and 70 µM on α7 nAChR [2].

With `c1cncc(C2=NCCCC2)c1` [Anabaseine], the EC50 on α7/5-HT3 channel (MMEBSS) was 6.6 µM; on α7 nAChR [2] it was 6 µM.

Take `COc1ccc(/C=C2\CCCN=C2c2cccnc2)c(OC)c1` [GTS-21]: in test [1] (30 nM Fl-btx, whole cell), the IC50 came out at 16 µM. Moreover, the EC50 at α7 nAChR [2] is 30 µM.

For `CNC1(C)C2CCC(C2)C1(C)C` (stereo not shown) [Mecamylamine], the IC50 in test [1] was above 300 µM.

`CCN1C[C@]2(COC(=O)c3ccccc3N3C(=O)C[C@H](C)C3=O)CC[C@H](OC)[C@@]34[C@@H]5C[C@H]6[C@H](OC)[C@@H]5[C@](O)(C[C@@H]6OC)[C@](O)([C@@H](OC)[C@H]23)[C@@H]14` [Methyllcaconitine (MLA), Methyllcaconitine]: the IC50 in test [1] stood at 0.026 µM.

The record behind these values is patent US7247706B2, “Double mutant alpha-7 nicotinic acetylcholine receptors” (Pharmacia & Upjohn Company, priority 1999, dated 2007).
